From PMC11266714, “Extraction optimization and reactivity of 7α-acetoxy-6β-hydroxyroyleanone and ability of its derivatives to modulate PKC isoforms” (Scientific Reports, 2024)
Like-named read-outs stand apart in the source and are kept apart here.

Assays:
[1] = tested on: MCF-7 human breast adenocarcinoma cells; assay: Sulforhodamine B (SRB) cell proliferation assay, MCF-7; assay type: cell-based
Protocol: (§1) The cytotoxic effect (IC50 values, Table 4) was determined from dose–response curves.
(§2) Royleanones and doxorubicin (Doxo) were tested on human breast adenocarcinoma lines. […] HFF‐1 cells were cultured in DMEM/F‐12 supplemented with 10% FBS. All cells were maintained at 37 °C in a humidified atmosphere of 5% CO2. Cells were routinely tested for mycoplasma infection using the MycoAlert™ PLUS mycoplasma detection kit (Lonza).
(§3) For the evaluation of the effect of the compounds on cell proliferation, the SRB assay was performed. […] Cells were treated for 48 h with serial dilutions of the compounds (ranging from 0.1 to 30.0 µM). The effects on cell proliferation were assessed by SRB assay, as described, and IC50 values were determined for each cell line using the GraphPad Prism software version 7.0 (La Jolla, CA, USA).

[2] = tested on: MDA-MB-231 human breast adenocarcinoma cells; assay: Sulforhodamine B (SRB) cell proliferation assay, MDA-MB-231; assay type: cell-based
Protocol: as §1, §2, §3

[3] = tested on: MDA-MB-468 human breast adenocarcinoma cells; assay: Sulforhodamine B (SRB) cell proliferation assay, MDA-MB-468; assay type: cell-based
Protocol: as §1, §2, §3

[4] = tested on: non-tumorigenic foreskin fibroblasts HFF-1 cells; assay: Sulforhodamine B (SRB) cell proliferation assay, HFF-1; assay type: cell-based, human
Protocol: as §1, §2, §3

[5] = molecular target: T1, PKC-α (Bos taurus, UniProt P04409); assay: Yeast PKC assay, PKC-α; assay type: cell-based, yeast (Saccharomyces cerevisiae)
T1 construct: expressed in transfected cells; host or cells: Saccharomyces cerevisiae
Excerpt: (§4) PKC isoforms are key targets for cancer therapy due to their significant roles in cancer development and progression. The selective-PKC-δ activation observed for RoyBz is well established. Nonetheless, it is important to understand the effect of Roy on PKC isoforms. Due to the specificity of the assay, it was decided to evaluate only few compounds: the natural ones Roy and DeRoy and two derivatives, one aromatic ester RoyBz and one aliphatic ester RoyPr[27] as PKC-α, -βI, -δ, -ε, and -ζ activators using the yeast PKC assay.
(§5) For the determination of EC50 values were considered the concentration of compound that caused 50% of the maximal growth inhibition caused by the positive controls (phorbol 12-myristate 13-acetate, PMA, for cPKCs and nPKCs; arachidonic acid, ARA, for PKCζ), which was set as 100%. Data are mean ± SEM of four independent experiments. nt, not tested; ND, non-determinable (when the maximal response achieved was lower than 50% growth inhibition).
(§6) The royleanones Roy, RoyBz and RoyPr were tested on the yeast assay as reported in[3]. Briefly, Saccharomyces cerevisiae cells individually expressing mammalian PKC-α, -βI, -δ, -ε, or -ζ, and control yeast (transformed with empty vector) obtained in previous works were used. Cells were grown in galactose selective medium in the presence of 0.1—30 μM of compounds (or 0.1% DMSO only) for approximately 42 h. Yeast growth was analyzed by counting the number of colony-forming units, after 2 days incubation at 30 °C. The growth of yeast transformed with the empty vector (control) was considered as 100%. From the dose–response curves obtained, EC50 (half maximal effective concentration) values were determined for the tested compounds.

[6] = molecular target: T2, PKC-βI (Rattus norvegicus, UniProt P68403); assay: Yeast PKC assay, PKC-βI; assay type: cell-based, yeast (Saccharomyces cerevisiae)
T2 construct: expressed in transfected cells; host or cells: Saccharomyces cerevisiae
T2 sequence (P68403 whole entry): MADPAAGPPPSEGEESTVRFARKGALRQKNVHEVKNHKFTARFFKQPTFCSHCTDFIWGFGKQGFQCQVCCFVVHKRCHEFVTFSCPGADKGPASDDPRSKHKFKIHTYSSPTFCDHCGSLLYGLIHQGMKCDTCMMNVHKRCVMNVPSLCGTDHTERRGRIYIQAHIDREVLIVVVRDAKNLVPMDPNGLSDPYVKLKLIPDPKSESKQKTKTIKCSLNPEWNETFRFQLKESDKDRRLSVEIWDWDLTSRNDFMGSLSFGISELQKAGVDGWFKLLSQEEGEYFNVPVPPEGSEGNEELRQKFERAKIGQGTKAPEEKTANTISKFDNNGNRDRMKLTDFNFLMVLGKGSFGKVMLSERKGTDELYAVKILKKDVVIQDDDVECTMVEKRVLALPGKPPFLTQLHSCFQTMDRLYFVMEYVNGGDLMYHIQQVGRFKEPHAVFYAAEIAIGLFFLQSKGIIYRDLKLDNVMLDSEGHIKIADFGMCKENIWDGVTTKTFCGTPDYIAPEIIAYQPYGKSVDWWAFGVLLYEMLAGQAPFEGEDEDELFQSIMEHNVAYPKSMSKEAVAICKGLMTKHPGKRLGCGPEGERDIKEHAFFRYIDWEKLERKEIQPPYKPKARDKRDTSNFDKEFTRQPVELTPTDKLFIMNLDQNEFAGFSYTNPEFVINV
Excerpt: as §4, §5, §6

[7] = molecular target: T3, PKC-ε (Homo sapiens, UniProt Q02156); assay: Yeast PKC assay, PKC-ε; assay type: cell-based
T3 construct: expressed in transfected cells; host or cells: Saccharomyces cerevisiae
T3 sequence (Q02156 1-737): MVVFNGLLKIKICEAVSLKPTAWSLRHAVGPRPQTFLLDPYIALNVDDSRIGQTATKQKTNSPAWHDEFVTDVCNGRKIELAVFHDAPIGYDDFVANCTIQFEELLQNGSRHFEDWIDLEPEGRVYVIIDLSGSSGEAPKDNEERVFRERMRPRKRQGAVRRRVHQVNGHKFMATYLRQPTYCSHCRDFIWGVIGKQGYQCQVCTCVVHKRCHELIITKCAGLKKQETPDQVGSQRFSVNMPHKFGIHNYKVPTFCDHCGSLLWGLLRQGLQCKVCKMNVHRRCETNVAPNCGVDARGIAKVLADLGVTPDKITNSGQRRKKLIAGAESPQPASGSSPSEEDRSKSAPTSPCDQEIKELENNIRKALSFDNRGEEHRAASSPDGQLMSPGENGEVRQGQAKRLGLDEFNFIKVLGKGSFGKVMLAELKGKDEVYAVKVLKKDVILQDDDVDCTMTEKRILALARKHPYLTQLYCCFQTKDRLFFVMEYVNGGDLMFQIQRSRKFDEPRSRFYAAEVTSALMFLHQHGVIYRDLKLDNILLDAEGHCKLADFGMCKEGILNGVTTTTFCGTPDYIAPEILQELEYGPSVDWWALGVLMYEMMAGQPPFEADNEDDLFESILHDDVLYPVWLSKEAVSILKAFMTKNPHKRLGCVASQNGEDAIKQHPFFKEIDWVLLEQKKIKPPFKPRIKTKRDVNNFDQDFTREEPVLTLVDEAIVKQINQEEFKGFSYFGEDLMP
Excerpt: as §4, §5, §6

[8] = molecular target: T4, PKC-ζ (Mus musculus, UniProt Q02956); assay: Yeast PKC assay, PKC-ζ; assay type: cell-based
T4 construct: expressed in transfected cells; host or cells: Saccharomyces cerevisiae
T4 sequence (Q02956 1-592): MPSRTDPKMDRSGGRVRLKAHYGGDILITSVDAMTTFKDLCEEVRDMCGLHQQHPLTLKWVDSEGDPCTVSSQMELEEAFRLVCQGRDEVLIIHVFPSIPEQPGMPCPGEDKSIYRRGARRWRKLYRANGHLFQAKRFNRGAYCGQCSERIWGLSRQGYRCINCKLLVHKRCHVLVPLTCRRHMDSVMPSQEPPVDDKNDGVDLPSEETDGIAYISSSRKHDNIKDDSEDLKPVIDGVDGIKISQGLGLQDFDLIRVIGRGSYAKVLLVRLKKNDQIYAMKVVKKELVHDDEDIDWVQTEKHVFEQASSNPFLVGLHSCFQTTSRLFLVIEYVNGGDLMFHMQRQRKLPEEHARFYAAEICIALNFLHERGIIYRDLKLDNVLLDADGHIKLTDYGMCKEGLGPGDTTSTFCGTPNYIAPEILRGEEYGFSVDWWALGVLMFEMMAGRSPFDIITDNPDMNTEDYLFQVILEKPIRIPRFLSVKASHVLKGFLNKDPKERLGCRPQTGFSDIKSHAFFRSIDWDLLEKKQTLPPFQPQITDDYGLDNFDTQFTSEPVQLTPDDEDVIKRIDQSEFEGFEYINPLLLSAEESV
Excerpt: as §4, §5, §6

[9] = molecular target: T5, PKC-δ (Rattus norvegicus, UniProt P09215); set-up: method as in PMID 29348560; details: yeast PKC assay; cited from earlier work
T5 construct: expressed in transfected cells; host or cells: Saccharomyces cerevisiae
T5 sequence (P09215 whole entry): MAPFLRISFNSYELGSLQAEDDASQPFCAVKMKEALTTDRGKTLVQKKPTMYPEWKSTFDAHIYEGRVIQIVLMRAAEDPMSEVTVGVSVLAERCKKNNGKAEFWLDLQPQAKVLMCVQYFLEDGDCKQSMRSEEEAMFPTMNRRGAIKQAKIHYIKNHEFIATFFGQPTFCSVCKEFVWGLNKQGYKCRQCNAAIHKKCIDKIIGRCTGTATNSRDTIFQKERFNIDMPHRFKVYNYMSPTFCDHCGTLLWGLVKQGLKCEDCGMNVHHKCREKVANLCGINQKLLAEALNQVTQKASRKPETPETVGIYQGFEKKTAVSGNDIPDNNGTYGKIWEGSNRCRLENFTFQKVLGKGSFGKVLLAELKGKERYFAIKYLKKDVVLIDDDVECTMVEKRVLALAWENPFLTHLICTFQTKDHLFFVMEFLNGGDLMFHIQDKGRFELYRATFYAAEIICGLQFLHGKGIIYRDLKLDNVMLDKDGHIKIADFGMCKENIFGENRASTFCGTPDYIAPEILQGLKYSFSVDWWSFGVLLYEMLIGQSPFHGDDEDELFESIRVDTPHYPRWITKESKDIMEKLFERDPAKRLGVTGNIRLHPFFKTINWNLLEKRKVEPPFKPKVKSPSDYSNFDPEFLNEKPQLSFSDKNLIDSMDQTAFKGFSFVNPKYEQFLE

[10] = molecular target: T5, PKC-δ; assay: Yeast PKC assay, PKC-δ; assay type: cell-based
Excerpt: as §4, §5, §6

[11] = tested on: MCF-7 human breast adenocarcinoma cells; details: cited from earlier work
[12] = Homo sapiens, MCF7, 48 h treatment
[13] = Homo sapiens, MDA-MB-231, 48 h, 48 h treatment
[14] = Homo sapiens, MDA-MB-468, 48 h, 48 h treatment
[15] = Homo sapiens, HFF-1, 48 h treatment
[16] = yeast growth inhibition, 50% of maximal effect of PMA, mean ± SEM, four experiments, ND = maximal response lower than 50% growth inhibition, read-out: EC50 (nM) PKC-α
[17] = yeast growth inhibition, 50% of maximal effect of PMA, mean ± SEM, four experiments, ND = maximal response lower than 50% growth inhibition, read-out: EC50 (nM) PKC-βI
[18] = yeast growth inhibition, 50% of maximal effect of PMA, mean ± SEM, four experiments, ND = maximal response lower than 50% growth inhibition, read-out: EC50 (nM) PKC-ε
[19] = yeast growth inhibition, 50% of maximal effect of ARA, mean ± SEM, four experiments, ND = maximal response lower than 50% growth inhibition, read-out: EC50 (nM) PKC-ζ
[20] = Homo sapiens, MDA-MB-231, 48 h treatment
[21] = Homo sapiens, MDA-MB-468, 48 h treatment
[22] = yeast growth inhibition, 50% of maximal effect of PMA, mean ± SEM, four experiments, ND = maximal response lower than 50% growth inhibition, read-out: EC50 (nM) PKC-δ

CC(=O)OC1C2=C(C(=O)C(O)=C(C(C)C)C2=O)C2(C)CCCC(C)(C)C2C1O (stereo not drawn) [Roy, 7α-acetoxy-6β-hydroxyroyleanone]
IC50 [1, 12]: 2090 ± 420 nM | IC50 ([2]; 48 h treatment): 350 ± 120 nM | IC50 [2, 13]: 300 nM | IC50 ([3]; 48 h treatment): 300 ± 160 nM | IC50 [3, 14]: 350 nM | IC50 [4, 15]: 1020 ± 280 nM | EC50 [5, 16]: 350 ± 42 nM | EC50 [6, 17]: 423 ± 67 nM | EC50 [7, 18]: 994 ± 63 nM | EC50 [8, 19]: 4110 ± 159 nM

CC(=O)O[C@H]1C2=C(C(=O)C(OC(=O)c3ccccc3)=C(C(C)C)C2=O)[C@@]2(C)CCCC(C)(C)[C@@H]2[C@@H]1O [Roy-12-Bz, 7α-acetoxy-6β-hydroxy-12-O-benzoylroyleanone]
IC50 [1, 12]: 4320 ± 240 nM | IC50 [2, 13]: 1650 ± 150 nM | IC50 [3, 14]: 1280 nM | IC50 [4, 15]: 1160 ± 220 nM

CC(C)C1=C(O)C(=O)C2=C(C1=O)[C@H](O)[C@@H](O)[C@H]1C(C)(C)CCC[C@]21C [DiRoy, 6β,7α-dihydroxyroyleanone]
IC50 [1, 12]: > 20000 nM | IC50 [2, 13]: > 20000 nM | IC50 [3, 14]: > 20000 nM

CCCCC/C=C\C/C=C\C/C=C\C/C=C\CCCC(=O)O [ARA, arachidonic acid, reference compound]
EC50 [8, 19]: 205 ± 32.6 nM

CC(=O)O[C@H]1C2=C(C(=O)C(OC(=O)c3ccccc3)=C(C(C)C)C2=O)[C@@]2(C)CCCC(C)(C)[C@@H]2[C@@H]1OC(=O)c1ccccc1 [RoyBz, 7α-acetoxy-6β-benzoyloxy-12-O-benzoylroyleanone]
IC50 [1, 12]: 1660 ± 100 nM | IC50 [2, 20]: 1500 ± 850 nM | IC50 [3, 21]: 1400 ± 80 nM | IC50 [4, 15]: 3580 ± 270 nM | EC50 [9]: 108 nM

CC(C)C1=C(O)C(=O)C2=C(C=C[C@H]3C(C)(C)CCC[C@]23C)C1=O [DeRoy, 6,7-dehydroroyleanone]
EC50 [5, 16]: 15 ± 1.9 nM | EC50 [10, 22]: 3.1 ± 0.6 nM | EC50 [7, 18]: 5.8 ± 0.7 nM | EC50 [8]: 43.8 ± 2.32 nM | IC50 [11]: 60400 ± 3690 nM

CC(=O)OC1=C(C(C)C)C(=O)C2=C(C1=O)C1(C)CCCC(C)(C)C1C(O)C2OC(C)=O (stereo not drawn) [Roy-12-Ac, 7α-acetoxy-6β-hydroxy-12-O-acetylroyleanone]
IC50 ([1]; 48 h treatment): 5670 ± 240 nM | IC50 ([2]; 48 h treatment): 2430 ± 150 nM | IC50 ([3]; 48 h treatment): 1600 ± 160 nM | IC50 ([4]; 48 h treatment): 600 ± 40 nM

COc1cccc2c1C(=O)c1c(O)c3c(c(O)c1C2=O)C[C@@](O)(C(=O)CO)C[C@@H]3O[C@H]1C[C@H](N)[C@H](O)[C@H](C)O1 [Doxo, Doxorubicin, reference compound]
IC50 [1, 12]: 600 ± 10 nM | IC50 [2, 20]: 1200 ± 50 nM | IC50 [3, 21]: 300 ± 40 nM | IC50 [4, 15]: 100 ± 120 nM

CCCCCCCCCCCCCC(=O)O[C@@H]1[C@@H](C)[C@@]2(O)[C@@H](C=C(CO)C[C@]3(O)C(=O)C(C)=C[C@@H]23)[C@@H]2C(C)(C)[C@]12OC(C)=O [PMA, phorbol 12-myristate 13-acetate, reference compound]
EC50 [5]: 112 ± 18.4 nM | EC50 [6]: 243 ± 69.1 nM | EC50 [10]: 574 ± 36.7 nM | EC50 [7]: 1680 ± 46.5 nM

CCC(=O)OC1=C(C(C)C)C(=O)C2=C(C1=O)C1(C)CCCC(C)(C)C1C(OC(=O)CC)C2OC(C)=O (stereo not drawn) [RoyPr, 7α-acetoxy-6β-propanoyloxy-12-O-propanoylroyleanone]
EC50 [5, 16]: 195 ± 16 nM | EC50 [6, 17]: 229 ± 21 nM | EC50 [10, 22]: 325 ± 49 nM | EC50 [7, 18]: 770 ± 46 nM | IC50 [11]: 28300 ± 2400 nM

CC(=O)OC1=C(C(C)C)C(=O)C2=C(C1=O)C1(C)CCCC(C)(C)C1C(OC(C)=O)C2OC(C)=O (stereo not drawn) [RoyAc, 7α,6β-diacetoxy-12-O-acetylroyleanone]
IC50 ([1]; 48 h treatment): 4250 ± 570 nM | IC50 ([2]; 48 h treatment): 1860 ± 90 nM | IC50 ([3]; 48 h treatment): 3250 ± 200 nM | IC50 ([4]; 48 h treatment): 4970 ± 340 nM
